For orientation: solubility means how much of the substance goes into solution per volume. A lower solubility goes with little dissolved substance.

Drawing on US3997598A, “Process for purifying sorbic acid” (Hoechst Aktiengesellschaft, priority 1973, dated 1976), this text covers solubility and solubility in water for one compound.

In brackets after ≈: the same amount, converted by molar mass. Where two headings read alike, the source gives them in different places.

The conditions of data set [1]: 30% aqueous dipotassium hydrogen phosphate.
A short description of another data set: physchem. The conditions noted are these: 30% aqueous dipotassium hydrogen phosphate.
For data set [2] the following is noted: cited from earlier work.

For `C/C=C/C=C/C(=O)O` [sorbic acid], the solubility in data set [1] is 15.1 grams per 100 ml of a salt sol; in the data set “physchem”, 79 mg/mL (≈ 705 mM). Moreover, the solubility in water entry is on record as “approximately 3%” in data set [2] (100° C) and “low solubility” in data set [2] (in words).
